Test results as given in PubChem BioAssay AID328 (DTP/NCI, 2004).
Several values for one entry are separate records, joined by “and”; a condition that tells them apart may be missing. Equal values may be shown once. Toxic doses and inconclusive results are not listed.

Tested on: BDF1 mice, P388 leukemia ip, median survival T/C
Experiment: NCI In Vivo Anticancer Drug Screen. Data for tumor model P388 Leukemia (intraperitoneal) in B6D2F1 (BDF1) mice
Details: endpoint: median survival time, higher = longer survival
Procedure, shortened: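 Survival ratio, drug arm over vehicle arm, in mice with a transplanted tumour.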

[1] = dose: 100.0 mg/kg/injection, schedule: Q01DX009 (ip), vehicle: saline with Tween-80
[2] = dose: 200.0 mg/kg/injection, schedule: Q01DX009 (ip), vehicle: saline with Tween-80
[3] = dose: 400.0 mg/kg/injection, schedule: Q01DX009 (ip), vehicle: saline with Tween-80
[4] = dose: 10.0 mg/kg/injection, schedule: Q04DX003 (ip), vehicle: saline
[5] = dose: 33.0 mg/kg/injection, schedule: Q04DX003 (ip), vehicle: saline
[6] = dose: 50.0 mg/kg/injection, schedule: Q04DX003 (ip), vehicle: saline
[7] = dose: 75.0 mg/kg/injection, schedule: Q04DX003 (ip), vehicle: saline

In the case of `O=C(O)CCC(=O)Nc1ccccc1C(F)(F)F`, the T/C [1] is reported as 100 % of control, the T/C [2] is reported as 109 % of control and the T/C [3] is reported as 90 % of control.

With `NC(=S)NNC(=O)/C=C/c1ccccc1` the T/C (dose: 100.0 mg/kg/injection, schedule: Q01DX001 (ip), vehicle: saline sonified) was 104 % of control, the T/C (dose: 200.0 mg/kg/injection, schedule: Q01DX001 (ip), vehicle: saline sonified) was 100 % of control and the T/C (dose: 400.0 mg/kg/injection, schedule: Q01DX001 (ip), vehicle: saline sonified) was 95 % of control.

`O=C(Nc1cc(Cl)ccc1Cl)c1ccc(C(=O)Nc2cc(Cl)ccc2Cl)cc1` was tested, and the T/C [1] was 94 % of control, the T/C [2] was 91 % of control and the T/C [3] was 110 % of control.

In the case of `CC1(C)N=C(N)N=C(N)N1c1cccc(Cl)c1`, the T/C (dose: 1.9 mg/kg/injection, schedule: Q04DX003 (ip), vehicle: saline) is reported as 104 % of control, the T/C (dose: 2.9 mg/kg/injection, schedule: Q04DX003 (ip), vehicle: saline) is reported as 100 % of control and the T/C [4] is reported as 113 % of control. The T/C (dose: 18.0 mg/kg/injection, schedule: Q01DX009 (ip), vehicle: saline) was 195 % of control, the T/C (dose: 18.7 mg/kg/injection, schedule: Q01DX009 (ip), vehicle: saline) was 168 % of control and the T/C (dose: 28.0 mg/kg/injection, schedule: Q01DX009 (ip), vehicle: saline) was 160 % of control and 209 % of control. The T/C (dose: 37.5 mg/kg/injection, schedule: Q04DX003 (ip), vehicle: saline) was 175 % of control and 177 % of control, the T/C (dose: 40.0 mg/kg/injection, schedule: Q01DX009 (ip), vehicle: saline) was 95 % of control and the T/C (dose: 42.0 mg/kg/injection, schedule: Q01DX009 (ip), vehicle: saline) was 213 % of control. For the same compound, the T/C (dose: 56.25 mg/kg/injection, schedule: Q04DX003 (ip), vehicle: saline) was 150 % of control.

In the case of `NCCCCS(=O)(=O)Nc1ccc(Nc2c3ccccc3nc3cc([N+](=O)[O-])ccc23)cc1`, the T/C (dose: 2.93 mg/kg/injection, schedule: Q04DX003 (ip), vehicle: saline) is reported as 122 % of control, the T/C [5] is reported as 154 % of control and the T/C [6] is reported as 154 % of control. The T/C [7] was 172 % of control, the T/C (dose: 100.0 mg/kg/injection, schedule: Q04DX003 (ip), vehicle: saline) was 161 % of control and the T/C (dose: 200.0 mg/kg/injection, schedule: Q04DX003 (ip), vehicle: saline) was 161 % of control.

In the case of `O=C(NCCNC(=O)c1cccnc1)c1ccncc1`, the T/C (dose: 100.0 mg/kg/injection, schedule: Q01DX001 (ip), vehicle: saline) is reported as 90 % of control, the T/C (dose: 200.0 mg/kg/injection, schedule: Q01DX001 (ip), vehicle: saline) is reported as 90 % of control and the T/C (dose: 400.0 mg/kg/injection, schedule: Q01DX001 (ip), vehicle: saline) is reported as 90 % of control.

For `COC(=O)C1=COC(C)C(C=O)C1CC(=O)O` (configuration not stated), the T/C [4] was 113 % of control, the T/C (dose: 22.0 mg/kg/injection, schedule: Q04DX003 (ip), vehicle: saline) was 122 % of control and the T/C [5] was 120 % of control. The T/C [6] was 172 % of control and the T/C [7] was 95 % of control.

With `Clc1ccc(N2CCN(CCCN3CCN(c4cccc(Cl)c4)CC3)CC2)cc1` the T/C (dose: 50.0 mg/kg/injection, schedule: Q04DX003 (ip), vehicle: saline sonified) was 100 % of control, the T/C (dose: 100.0 mg/kg/injection, schedule: Q04DX003 (ip), vehicle: saline sonified) was 100 % of control and the T/C (dose: 200.0 mg/kg/injection, schedule: Q04DX003 (ip), vehicle: saline sonified) was 91 % of control.

With `CN(C)c1ccc(C(O)(Cc2cccc(C#N)c2)c2ccc(N(C)C)cc2)cc1` the T/C (dose: 100.0 mg/kg/injection, schedule: Q04DX002 (ip), vehicle: saline with Tween-80) was 95 % of control, the T/C (dose: 200.0 mg/kg/injection, schedule: Q04DX002 (ip), vehicle: saline with Tween-80) was 89 % of control and the T/C (dose: 400.0 mg/kg/injection, schedule: Q04DX002 (ip), vehicle: saline with Tween-80) was 98 % of control.

For `S=P(NCCNP(=S)(N1CC1)N1CC1)(N1CC1)N1CC1`, the T/C (dose: 33.0 mg/kg/injection, schedule: Q04DX003 (ip), vehicle: saline with Tween-80) was 121 % of control, the T/C (dose: 50.0 mg/kg/injection, schedule: Q04DX003 (ip), vehicle: saline with Tween-80) was 256 % of control and the T/C (dose: 75.0 mg/kg/injection, schedule: Q04DX003 (ip), vehicle: saline with Tween-80) was 121 % of control.
